# Test results reported in patent US6713274B2, “Method for identifying modulators of sulfotransferase activity” (The Regents of the University of California, priority 2002, dated 2004).
# How the values were obtained:
# [1] = biological target: T1, GST-3 (Homo sapiens, UniProt Q8NCG5); assay: Dot-blot assay for GST-3 (sulfation of β-GlcNAc-PAA with 35S-PAPS); format: biochemical; conditions: FIG. 5B Lineweaver-Burk plot
# T1 sequence (Q8NCG5 1-386): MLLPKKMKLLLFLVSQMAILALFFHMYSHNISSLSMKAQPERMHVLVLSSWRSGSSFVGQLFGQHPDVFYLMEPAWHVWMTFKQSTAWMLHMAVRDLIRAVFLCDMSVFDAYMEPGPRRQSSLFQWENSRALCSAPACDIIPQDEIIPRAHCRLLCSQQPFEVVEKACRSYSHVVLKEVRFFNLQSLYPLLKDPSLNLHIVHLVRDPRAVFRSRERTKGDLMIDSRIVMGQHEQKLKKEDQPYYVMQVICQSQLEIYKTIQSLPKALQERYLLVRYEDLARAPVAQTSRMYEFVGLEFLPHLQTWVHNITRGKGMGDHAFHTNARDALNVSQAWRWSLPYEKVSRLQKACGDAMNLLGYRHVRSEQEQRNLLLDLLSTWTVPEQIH
# Description: A typical assay included an appropriate volume of enzyme solution, 0.6-1.0 μg of β-GlcNAc-PAA, 0.1% Triton X-100, 10% glycerol, 4 mM Mg(OAc)2, 10 mM NaF, 1 mM ATP, in 30 mM HEPES-NaOH (pH 6.0), diluted to a total volume of 25 μL in a 96-well plate. Reactions were initiated with 2.0 μM ^35S-PAPS (0.1-0.5 μCi per reaction), incubated at 25° C. for 2 h, and terminated with 30 μL of MeOH. A 15-μL aliquot was removed from each well and diluted 100-fold, and 15-25 μL of the solution were transferred to the wells of the dot-blot apparatus. A vacuum was applied, and the wells were washed and eluted as described below. Control reactions with heat-killed enzyme were included to monitor background binding of ^35S-PAPS and ^35S-SO4^2− to the membrane after washing.
# (§1) Hybond-N+ membranes were pre-wetted with H2O and Hybond-P membranes were pre-wetted with MeOH before assembling the dot-blot apparatus. The quenched and diluted reactions were added to the wells, and a vacuum was applied to load products onto the membrane. To elute ^35S-PAPS while retaining ^35S-labeled heparin or GlcNAc-PAA on the membrane, the wells were washed twice with 40 μL of PAPS elution buffer (EB) ((NH4)2SO4 pH 3.0), while maintaining a gentle vacuum. […] The amount of ^35S-labeled product associated with the membrane was then quantified by phosphorimaging.
# [2] = biological target: T2, sulfotransferase domain of human NDST-1 (Homo sapiens, UniProt P52848); assay: Dot-blot assay for NDST-1 (sulfation of de-N-sulfated heparin with 35S-PAPS); format: biochemical; conditions: FIG. 5A Lineweaver-Burk plot
# T2 construct: A plasmid containing the sulfotransferase domain of human NDST-1 fused to glutathione S-transferase; glutathione S-transferase (cleaved yes); made in house
# T2 sequence (P52848 599-882 limits assumed): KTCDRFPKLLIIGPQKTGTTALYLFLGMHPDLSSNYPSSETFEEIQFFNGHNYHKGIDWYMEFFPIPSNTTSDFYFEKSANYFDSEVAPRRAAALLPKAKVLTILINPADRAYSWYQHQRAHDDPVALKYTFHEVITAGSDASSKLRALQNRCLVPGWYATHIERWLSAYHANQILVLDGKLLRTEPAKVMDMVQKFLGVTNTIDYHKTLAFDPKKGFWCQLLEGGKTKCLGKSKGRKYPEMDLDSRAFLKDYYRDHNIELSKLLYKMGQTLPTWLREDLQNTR
# Description: For the NDST-1 assay, de-N-sulfated heparin (0.02-0.1 mg) and 0.1 μg of enzyme were added to 50 mM HEPES-NaOH (pH 7.0), 0.15 M NaCl, 0.75 mg/mL protamine, 0.4% Triton X-100, 15% glycerol in a total volume of 25 μL in a 96-well plate. Reactions were initiated with 0.15 μM ^35S-labeled PAPS (“^35S-PAPS”)(0.1-0.5 μCi per reaction), incubated at 25° C. for 15 min, and terminated by the addition of 30 μL of MeOH. A 15-μL aliquot was removed from each well and diluted 100-fold, and 15-25 μL were then transferred to the wells of the dot-blot apparatus. A vacuum was applied, and the wells were washed and eluted as described below. Control reactions with heat-killed (100° C., 5 min) enzyme were included to monitor background binding of ^35S-PAPS and ^35S-SO4^2− to the membrane after washing.
# as §1
structure (smiles),measurement,setting,value
"Nc1ncnc2c1ncn2[C@@H]1O[C@H](COP(=O)(O)O)[C@@H](OP(=O)(O)O)[C@H]1O [3′,5′-ADP]",mode of enzyme inhibition (double reciprocal plots of signal versus PAPS concentration),[1],competitive inhibitor
same,mode of enzyme inhibition (double reciprocal plots of signal versus PAPS concentration),[2],competitive inhibitor
